Values after ≈ are worked out from the molar mass of the structure shown. Read-outs that look alike come from different tables or passages of the source.
How the values were obtained:
[1] = equivalent to 100 mg free form in 250 ml pH 7.3 artificial saliva, 37° C., 50 RPM
Method: Dissolution experiments using the salt forms of gemfibrozil were performed using a VanKel VK7010 dissolution apparatus equipped with a VK750D heater/circulator. The 2 paddle method was used. Dissolution medium was 250 mL of artificial saliva, pH 7.30. The temperature was maintained at 37° C. The paddles were rotated at 50 RPM. […] Samples aliquots of 2 mL were taken at 5, 10, and 15 minutes and filtered immediately using a […] Nylon membrane syringe filter. Samples were analyzed by HPLC.

[2] = Dynamic vapor sorption (DVS); assay type: physicochemical; set-up: key to Hysteresis: % change in weight (DVS sorption/desorption); conditions: for Hysteresis: in % (unit assumed); for state of post-DVS sample: after sorption/desorption cycle 5%-95%-5% relative humidity; for Desorp Mass Change: desorption; for gained moisture retained: following desorption from 95% to 5% relative humidity; for Sorp Mass Change: sorption
Description: In an embodiment, ethanolamine gemfibrozil salt Form A has a low hygroscopicity below approximately 55% relative humidity, meaning less than 0.5% increases in weight below approximately 55% relative humidity, which may be determined using dynamic vapor sorption (DVS) to detect changes in weight of the salt in response to changes in relative humidity. […] Table 6 lists the percent change in weight of ethanolamine gemfibrozil salt Form A (Sorp Mass Change (%)) in 10% relative humidity increments from its initial weight at 5% relative humidity to its weight at 95% relative humidity.
Dynamic Vapor Sorption (DVS)—Moisture sorption/desorption data were collected on a SMS Intrinsic Dynamic Vapor Sorption Analyzer. Sodium chloride and PVP were used as calibration standard. Samples were not dried prior to analysis. Sorption and desorption data were collected over a range from 5% to 95% relative humidity at 10% relative humidity increments under a nitrogen purge. The equilibrium criterion used for analysis was less than 0.0100% weight change in 5 minutes with a maximum equilibration time of 3 hours. Data were not corrected for the initial moisture content of the samples.

[3] = XRPD form check after humidity stress; assay type: physicochemical
Description: In an example, an L-arginine gemfibrozil salt was stressed for one day at 75% relative humidity.
The observed peaks of the post-DVS salt were consistent with the pattern of peaks observed for an L-lysine gemfibrozil salt Material A prepared prior to exposure to increased relative humidities (FIG. 15).
X-Ray Powder Diffraction (XRPD)—XRPD patterns were collected with a PANalytical X'Pert PRO MPD or PANalytical Empyrean diffractometers using an incident beam of Cu radiation produced using an Optix long, fine-focus source. An elliptically graded multilayer mirror was used to focus Cu Kα X-rays through the specimen and onto the detector. Prior to analysis, a silicon specimen (NIST SRM 640e) was analyzed to verify the observed position of the Si 111 peak is consistent with the NIST-certified position. A specimen of the sample was sandwiched between 3 μm thick films and analyzed in transmission geometry. A beam-stop, short antiscatter extension, and antiscatter knife edge were used to minimize the background generated by air. Soller slits for the incident and diffracted beams were used to minimize broadening from axial divergence. Diffraction patterns were collected using a scanning position-sensitive detector (X'Celerator) located […] from the specimen and Data Collector software v. 5.5.

[4] = Thermogravimetric analysis (TGA); assay type: physicochemical
Method: Thermogravimetric Analysis (TGA)—TG analysis was performed using a Mettler-Toledo TGA/DSC3+ analyzer. Temperature and enthalpy adjustments were performed using indium, tin, and zinc, and then verified with indium. The balance was verified with calcium oxalate. The sample was placed in an open aluminum pan. The pan was hermetically sealed, the lid pierced, then inserted into the TG furnace. A weighed aluminum pan configured as the sample pan was placed on the reference platform. The furnace was heated under nitrogen. The data acquisition parameters for the thermogram are determined.

[5] = Dissolution of free-form gemfibrozil in artificial saliva (USP <711> apparatus 2, HPLC); assay type: physicochemical; conditions: 4 hours; 600 mg in 900 mL pH 7.3 artificial saliva, 100 rpm, 37° C. (FIG. 1)
Method: USP <711> dissolution apparatus 2 (paddle method) was used. Dissolution medium was 900 mL of artificial saliva, pH 7.30. The temperature was maintained at 37° C. The paddles were rotated at 100 RPM. Six-hundred milligrams of gemfibrozil was added into each vessel at t=0. Samples aliquots of 2 mL were taken at 0.25, 0.5, 1, 2, 3, and 4 hours and filtered immediately using a 0.45 μm Nylon membrane syringe filter, whereby the filtrate was diluted at a 1:1 ratio with methanol and then vortexed. Samples were analyzed by HPLC.

[6] = cited from earlier work
physchem = conditions: pH 7.3, fassgf or other biorelevant, thermodynamic from solid
Method: The solution was then mixed by vortexing or sonicating, until complete dissolution was observed.
Kinetic Solubilities/Visual Solubility Assessment—Weighed samples were treated with aliquots of solvent at ambient temperature unless otherwise indicated. Samples were typically sonicated between additions to facilitate dissolution. Complete dissolution was observed through visual inspection. Solubilities were calculated based on the total amount of solvent added to achieve complete dissolution and may be greater than the value reported due to incremental solvent addition and the inherent kinetics of dissolution. […] These values are approximate. These values may also over-represent the amount of solvent required given that solvent was added incrementally. Approximately 10 mg of gemfibrozil salt was weighed into a vial. Artificial saliva was added to the vial until complete dissolution was observed. Each volume addition was followed by vortex mixing or sonication and observation on the presence of solids was noted.
Solubility descriptors were used as follows—Practically insoluble refers to a compound that is soluble at less than 0.1 mg/ml in solution. […] Slightly soluble, refers to a compound that is soluble in an aqueous solution from 1 mg/ml to 10 mg/ml. Sparingly soluble, refers to a compound that is soluble in an aqueous solution from 10 mg/ml to 30 mg/ml. […]

[7] = equilibrium, 1.5 ml pH 7.3 artificial saliva, 16 hours
[8] = sorption from 5% to 85% relative humidity
[9] = sorption from 85% to 95% relative humidity

## Cc1ccc(C)c(OCCCC(C)(C)C(=O)O)c1.N=C(N)NCCCC(N)C(=O)O [Arginine Material A]
[1]; 5 min
  Average % Gemfibrozil dissolved: 96.64%
[1]; 5 min, listed as L-arginine gemfibrozil salt Material A
  Average % Gemfibrozil dissolved: 96.6%
[1]; 10 min
  Average % Gemfibrozil dissolved: 94.40%
[1]; 15 min
  Average % Gemfibrozil dissolved: 94.27%
[7]
  Observations: No excess solids
[2]; Target RH 15.0%
  Hysteresis: 6.09
  Desorp Mass Change: 6.12%
  Sorp Mass Change: 0.03%
[2]; Target RH 25.0%
  Hysteresis: 6.79
  Desorp Mass Change: 6.85%
  Sorp Mass Change: 0.06%
[2]; Target RH 35.0%
  Hysteresis: 7.73
  Desorp Mass Change: 7.89%
  Sorp Mass Change: 0.16%
[2]; Target RH 45.0%
  Hysteresis: 9.27
  Desorp Mass Change: 9.51%
  Sorp Mass Change: 0.25%
[2]; Target RH 55.0%
  Hysteresis: 11.46
  Desorp Mass Change: 11.75%
  Sorp Mass Change: 0.28%
[2]; Target RH 65.0%
  Hysteresis: 14.60
  Desorp Mass Change: 14.95%
  Sorp Mass Change: 0.35%
[2]; Target RH 75.0%
  Hysteresis: 18.97
  Desorp Mass Change: 19.47%
  Sorp Mass Change: 0.50%
[2]; Target RH 85.0%
  Hysteresis: 25.96
  Desorp Mass Change: 26.79%
  Sorp Mass Change: 0.83%
[2]
  state of post-DVS sample: deliquesced
  gained moisture retained: approximately 5.6%
[2]; Target RH 5.0%
  Desorp Mass Change: 5.55%
  Sorp Mass Change: 0.00%
[2]; Target RH 95.0%
  Desorp Mass Change: 45.96%
  Sorp Mass Change: 45.96%
[2]; [8]
  percent increase in mass: approximately 0.8%
[2]; [9]
  percent change in mass: 45.1%
[3]; stressed for one day at 75% relative humidity
  form change by XRPD: did not undergo a form change
[4]
  temperature until which weight does not decrease (may be the onset of decomposition): approximately 207 °C
[4]; between 44° C. and 125° C.
  weight loss: approximately 0.1%

## Cc1ccc(C)c(OCCCC(C)(C)C(=O)O)c1.NCCO [Ethanolamine Form A]
[1]; 5 min
  Average % Gemfibrozil dissolved: 97.30%
[1]; 5 min, listed as ethanolamine gemfibrozil salt Form A
  Average % Gemfibrozil dissolved: 97.3%
[1]; 10 min
  Average % Gemfibrozil dissolved: 94.80%
[1]; 15 min
  Average % Gemfibrozil dissolved: 95.84%
pH 7.3
  Observations: No excess solids
[2]; Target RH 15.0%
  Hysteresis: 2.60
  Desorp Mass Change: 2.60%
  Sorp Mass Change: 0.00%
[2]; Target RH 25.0%
  Hysteresis: 3.56
  Desorp Mass Change: 3.56%
  Sorp Mass Change: 0.00%
[2]; Target RH 35.0%
  Hysteresis: 4.87
  Desorp Mass Change: 4.88%
  Sorp Mass Change: 0.01%
[2]; Target RH 45.0%
  Hysteresis: 6.67
  Desorp Mass Change: 6.70%
  Sorp Mass Change: 0.03%
[2]; Target RH 55.0%
  Hysteresis: 9.19
  Desorp Mass Change: 9.29%
  Sorp Mass Change: 0.10%
[2]; Target RH 65.0%
  Hysteresis: 1.78
  Desorp Mass Change: 12.93%
  Sorp Mass Change: 11.14%
[2]; Target RH 75.0%
  Hysteresis: 0.64
  Desorp Mass Change: 18.56%
  Sorp Mass Change: 17.93%
[2]; Target RH 85.0%
  Hysteresis: 4.16
  Desorp Mass Change: 31.49%
  Sorp Mass Change: 27.33%
[2]
  state of post-DVS sample: deliquesced
  gained moisture retained: approximately 2%
[2]; Target RH 5.0%
  Desorp Mass Change: 1.92%
  Sorp Mass Change: 0.00%
[2]; Target RH 95.0%
  Desorp Mass Change: 45.05%
  Sorp Mass Change: 45.05%
[2]; sorption from 5% to 55% relative humidity
  percent increase in mass: approximately 0.1%
[2]; sorption from 55% to 95% relative humidity
  percent change in mass: 44.9%
[4]
  temperature until which weight does not decrease (may be the onset of decomposition): approximately 140 °C

## Cc1ccc(C)c(OCCCC(C)(C)C(=O)O)c1 [Free Form, 5-(2,5-dimethylphenoxy)-2,2-dimethyl-pentanoic acid]
[5]
  average % of free-form gemfibrozil dissolved: 78%
[6]; in DMSO
  solubility: ~16000 µg/mL (≈ 63.9 mM)
[6]; in a 1:1 solution of ethanol:PBS
  solubility: approximately 0.5 mg/mL
[6]; in ethanol
  solubility: approximately 30 mg/ml
[6]; in water
  solubility: approximately 0.03 mg/ml
physchem
  solubility: < 1100 µg/mL

## Cc1ccc(C)c(OCCCC(C)(C)C(=O)O)c1.NCCCCC(N)C(=O)O [Lysine Material A]
[1]; 5 min
  Average % Gemfibrozil dissolved: 96.29%
[1]; 5 min, listed as L-lysine gemfibrozil salt Material A
  Average % Gemfibrozil dissolved: 96.3%
[1]; 10 min
  Average % Gemfibrozil dissolved: 93.51%
[1]; 15 min
  Average % Gemfibrozil dissolved: 94.67%
[7]
  Observations: No excess solids
[2]; Target RH 15.0%
  Hysteresis: 2.48
  Desorp Mass Change: 2.53%
  Sorp Mass Change: 0.04%
[2]; Target RH 25.0%
  Hysteresis: 3.61
  Desorp Mass Change: 2.81%
  Sorp Mass Change: 0.19%
[2]; Target RH 35.0%
  Hysteresis: 2.69
  Desorp Mass Change: 3.09%
  Sorp Mass Change: 0.40%
[2]; Target RH 45.0%
  Hysteresis: 2.54
  Desorp Mass Change: 3.45%
  Sorp Mass Change: 0.91%
[2]; Target RH 55.0%
  Hysteresis: 2.30
  Desorp Mass Change: 4.09%
  Sorp Mass Change: 1.79%
[2]; Target RH 65.0%
  Hysteresis: 2.09
  Desorp Mass Change: 5.25%
  Sorp Mass Change: 3.15%
[2]; Target RH 75.0%
  Hysteresis: 3.16
  Desorp Mass Change: 9.49%
  Sorp Mass Change: 6.32%
[2]; Target RH 85.0%
  Hysteresis: 13.47
  Desorp Mass Change: 27.95%
  Sorp Mass Change: 14.48%
[2]
  state of post-DVS sample: deliquesced
  gained moisture retained: approximately 2.1%
[2]; Target RH 5.0%
  Desorp Mass Change: 2.09%
  Sorp Mass Change: 0.00%
[2]; Target RH 95.0%
  Desorp Mass Change: 38.97%
  Sorp Mass Change: 38.97%
[2]; sorption from 5% to 25% relative humidity
  percent increase in mass: approximately 0.2%
[2]; [8]
  percent increase in mass: approximately 14.5%
[2]; [9]
  percent change in mass: approximately 24.5%
[3]; post-DVS sample, exposure to increased relative humidity
  form change by XRPD: did not undergo a form change
[4]
  temperature until which weight does not decrease (may be the onset of decomposition): approximately 165 °C

Reference: patent publication US20230092359A1, “GEMFIBROZIL FORMULATION” (Polaryx Therapeutics, Inc., priority 2020, published 2023)
